Assay results taken from PMC2898170 (Neuropsychiatric Disease and Treatment, 2010).

How the values were obtained:
[1] = molecular target: T1, human peptide transporter-1 (PEPT1) (Homo sapiens, UniProt P46059); assay: inhibition of radiolabeled Gly-Sar uptake in transfected CHO cells; format: cell-based
T1 sequence (P46059 1-708): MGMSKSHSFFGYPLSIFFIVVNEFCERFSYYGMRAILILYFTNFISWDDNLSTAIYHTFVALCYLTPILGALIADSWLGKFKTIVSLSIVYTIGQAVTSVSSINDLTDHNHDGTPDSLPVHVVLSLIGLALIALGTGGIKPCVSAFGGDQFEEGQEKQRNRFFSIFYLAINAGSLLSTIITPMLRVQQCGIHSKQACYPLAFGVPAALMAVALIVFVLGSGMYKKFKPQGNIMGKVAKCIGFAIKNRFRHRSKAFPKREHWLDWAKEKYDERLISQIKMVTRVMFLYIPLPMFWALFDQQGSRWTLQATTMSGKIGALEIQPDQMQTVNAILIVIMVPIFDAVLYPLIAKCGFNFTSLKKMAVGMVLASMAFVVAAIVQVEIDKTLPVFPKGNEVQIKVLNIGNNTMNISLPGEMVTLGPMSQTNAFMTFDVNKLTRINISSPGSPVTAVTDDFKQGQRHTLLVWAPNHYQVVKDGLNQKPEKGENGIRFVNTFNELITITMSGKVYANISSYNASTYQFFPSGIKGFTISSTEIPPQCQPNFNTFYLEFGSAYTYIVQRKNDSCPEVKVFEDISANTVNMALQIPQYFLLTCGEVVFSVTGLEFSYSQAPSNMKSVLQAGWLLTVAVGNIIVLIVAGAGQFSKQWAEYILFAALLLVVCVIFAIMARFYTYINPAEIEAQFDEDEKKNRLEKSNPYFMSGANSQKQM

PEPT2 = molecular target: T2, PEPT2 (Homo sapiens, UniProt Q16348); assay: as above; format: cell-based
T2 sequence (Q16348 1-729): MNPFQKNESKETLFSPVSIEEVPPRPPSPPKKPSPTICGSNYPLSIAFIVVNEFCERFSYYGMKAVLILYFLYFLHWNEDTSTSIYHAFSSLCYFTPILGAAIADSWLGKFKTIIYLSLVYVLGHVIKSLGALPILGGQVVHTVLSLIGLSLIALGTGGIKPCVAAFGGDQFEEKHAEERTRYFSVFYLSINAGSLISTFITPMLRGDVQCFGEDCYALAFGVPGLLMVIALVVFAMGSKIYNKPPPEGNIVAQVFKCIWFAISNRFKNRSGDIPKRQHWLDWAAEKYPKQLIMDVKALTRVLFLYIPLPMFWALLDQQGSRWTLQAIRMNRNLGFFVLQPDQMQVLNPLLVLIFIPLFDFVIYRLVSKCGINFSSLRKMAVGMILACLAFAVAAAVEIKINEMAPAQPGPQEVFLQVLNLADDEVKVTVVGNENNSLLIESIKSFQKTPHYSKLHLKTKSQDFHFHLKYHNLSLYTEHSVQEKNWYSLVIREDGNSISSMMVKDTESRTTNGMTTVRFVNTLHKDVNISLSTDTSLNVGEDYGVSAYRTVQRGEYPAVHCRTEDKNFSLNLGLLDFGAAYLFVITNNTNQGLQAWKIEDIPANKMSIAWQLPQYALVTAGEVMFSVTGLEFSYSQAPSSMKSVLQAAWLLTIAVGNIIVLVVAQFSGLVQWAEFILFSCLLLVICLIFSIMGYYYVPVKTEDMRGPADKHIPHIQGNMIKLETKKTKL

Work on `C[C@@H](Cc1ccccc1)NC(=O)[C@@H](N)CCCCN` [lisdexamfetamine dimesylate] yielded an IC50 [1] of about 4 mM and an IC50 (PEPT2) of 246 µM.
